The source of these data is publication PMC9667777, “A fragment-based approach leading to the discovery of inhibitors of CK2α with a novel mechanism of action” (RSC Medicinal Chemistry, 2022).

For assay [1], the target named is T1, CK2α (Homo sapiens, UniProt P68400). Kind of assay: biochemical. The conditions noted are these: for inhibition at 50 µM: read-out: % inhibition at 50 μM; for inhibition at 500 µM: read-out: % inhibition at 500 μM; for inhibition at 1000 µM: read-out: % inhibition at 1 mM.
T1 sequence (P68400 whole entry): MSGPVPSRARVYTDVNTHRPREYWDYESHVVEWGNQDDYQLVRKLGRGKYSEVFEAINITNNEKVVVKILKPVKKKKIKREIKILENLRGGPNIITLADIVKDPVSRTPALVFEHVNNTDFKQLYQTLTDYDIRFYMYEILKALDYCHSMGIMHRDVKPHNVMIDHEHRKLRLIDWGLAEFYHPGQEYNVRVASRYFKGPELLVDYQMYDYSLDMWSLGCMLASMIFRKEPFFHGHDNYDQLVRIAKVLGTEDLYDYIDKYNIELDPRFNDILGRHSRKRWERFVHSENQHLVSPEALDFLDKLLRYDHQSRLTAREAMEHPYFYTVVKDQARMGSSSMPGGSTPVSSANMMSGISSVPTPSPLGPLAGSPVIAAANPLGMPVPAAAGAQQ
Assay [2] has as its target T1, CK2α.
For assay [3], the system named is HCT116 cells. Briefly: cells. As to conditions: Homo sapiens, HCT-116, 72 h, read-out: GI50 HCT116, 72 hours; mean ± SEM from three experiments run in triplicate.
The subject of assay [4] is HCT116 cells. As to conditions: read-out: GI50 HCT116; 72 hours; mean ± SEM from three experiments run in triplicate.
Assay [5] addresses T1, CK2α. The source holds these as a separate data set.
A further assay deals with A549 cells. Briefly: cells. The conditions noted are these: Homo sapiens, 72 h, read-out: GI50 A459.
The test system of a further assay is Jurkat cells. Kind of assay: cells. As to conditions: Homo sapiens, 72 h, read-out: GI50 Jurkat.
Assay [6] has as its system CK2α-dependent phosphorylation of AKT1 Ser129 and CDC37 Ser13. The conditions noted are these: HCT116 cells.

Each structure is given as a SMILES string. Several values for one entry are separate records, joined by “and”; a condition that tells them apart may be missing. Equal values may be shown once. Read-outs that look alike come from different tables or passages of the source.

As for `Brc1ccc2[nH]cc(Cc3ccc[nH]3)c2c1` [Compound 20], the inhibition (as a rule, the relative decrease from the control value, in per cent) at 50 µM on CK2α [1] stood at 8 ± 3%.

Consider `N#CCc1n[nH]c2cc(Br)c(Br)cc12` [Compound 16], for which, at CK2α [1], the inhibition at 50 µM was 95 ± 4%. At CK2α [2], the Ligand efficiency was determined as 0.53 kcal/mol.

As to `CNCc1c[nH]c2ccc(Br)cc12` [Compound 22], the inhibition at 50 µM at CK2α [1] is 21 ± 5%.

On to `Brc1ccc2[nH]cc(Cc3nccs3)c2c1` [Compound 18], for which the inhibition at 50 µM at CK2α [1] was 13 ± 4%.

Consider `Clc1cc2[nH]ccc2cc1Br` [Compound 6], for which the inhibition at 500 µM at CK2α [1] came out at 93 ± 5%. Moreover, the Ligand efficiency on CK2α [2] was 0.44 and 0.44 kJ mol^−1.

For the compound `N#CCc1c[nH]c2cc(Cl)c(Br)cc12` [Compound 9], the inhibition at 50 µM on CK2α [1] was found to be 103 ± 6%.

With `N#CCc1c[nH]c2ccc(C(F)(F)F)cc12` [Compound 14], at CK2α [1], the inhibition at 50 µM came to 39 ± 10%.

With `Brc1ccc2[nH]ncc2c1` [Compound 7], at CK2α [1], the inhibition at 500 µM was found to be 66 ± 5% and the inhibition at 1000 µM is 84 ± 6%. Further, the Ligand efficiency at CK2α [2] is 0.47 and 0.47 kJ mol^−1.

On to `CCCc1cn(Cc2c[nH]c3ccc(Br)cc23)nn1` [Compound 21], for which the inhibition at 50 µM at CK2α [1] came out at 11 ± 6%.

On to `Brc1ccc2[nH]ccc2c1` [Compound 3], for which, at CK2α [1], the inhibition at 500 µM turned out to be 22 ± 5% and the inhibition at 1000 µM is 50 ± 13%.

Regarding `N=C(Cc1c[nH]c2ccc(Br)cc12)NO` [Compound 23], the inhibition at 50 µM on CK2α [1] was 13 ± 5%.

Take `O=C(O)c1ccc2c(c1)nc(Nc1cccc(Cl)c1)c1ccncc12` [CX4945, reference compound]: the results for the 50% growth inhibitory concentration (GI50) in the assay on HCT116 cells [3] and in the assay with HCT116 cells [4] were 4.8 µM and 4 µM, respectively.

Consider `N#CCc1n[nH]c2ccc(Br)cc12` [Compound 10], for which, on CK2α [1], the inhibition at 50 µM is 97 ± 3%.

On to `N#CCc1c[nH]c2ccc(Br)cc12` [Compound 8], for which the “binding to CK2α by CPMG signal” value at CK2α [5] (500 μM compound + 7 μM CK2α) is given as “binds to CK2α”. Besides, the “binding to CK2α in the presence of CX4945” value on CK2α [5] (500 μM compound + 50 μM CX4945 + 7 μM CK2α) is “significantly reduced”. Moreover, the “binding to CK2α in the presence of αD-binder” value at CK2α [5] (500 μM compound + 500 μM αD-binder + 7 μM CK2α) is recorded as “largely inhibited”. In addition, the GI50 (as a rule, the concentration that inhibits growth by half) in the assay with HCT116 cells [3] is 88 ± 7 µM; in the assay on A549 cells, 29 ± 7 µM; in the assay on Jurkat cells, 55 ± 2 µM. In addition, the inhibition at 50 µM on CK2α [1] amounted to 32 ± 7%. Besides, the inhibition at 500 µM on CK2α [1] is 87 ± 11%. In addition, the inhibition at 1000 µM on CK2α [1] was determined as 105 ± 9%. The Ligand efficiency on CK2α [2] was 0.44 and 0.44 kcal mol-1 and 0.44 kJ mol^−1. Also, the “inhibition of CK2α-dependent phosphorylation of Ser129 in AKT1” value in assay [6] (twice the GI50 (170 μM), 24, 48 or 72 hours) is “good inhibition”. In assay [6] (twice the GI50 (170 μM), 48 h), the “inhibition of phosphorylation of Ser13 in CDC37” value was “significantly inhibited”.

`N#CCc1n[nH]c2cc(Cl)c(Br)cc12` [Compound 17]: the inhibition at 50 µM on CK2α [1] was 98 ± 3%. The compound also yielded a Ligand efficiency at CK2α [2] of 0.52 kcal/mol.

Turning to `N#CCc1c[nH]c2cc(Br)c(Br)cc12` [Compound 15], at CK2α [1], the inhibition at 50 µM came to 65 ± 10%.
